The results in this text go back to ChEMBL document CHEMBL3272111, “Synthesis of 2-benzyloxy and 2-benzylthio analogues of primaquine as potential antimalarials” (1977).

The source made the active and inactive calls. No cut-off for these calls is given here.

The test system of assay [1] is Plasmodium cynomolgi. The assay is described as follows: Antimalarial activity against Plasmodium cynomolgi infected in monkey assessed as relapses day at 1 mg/kg, po. In kind it is functional.
In assay [2] the test system is Plasmodium cynomolgi. The assay is described as follows: Antimalarial activity against Plasmodium cynomolgi infected in monkey assessed as relapses day at 0.5 mg/kg, po. It is filed as functional.
Assay [3] deals with Plasmodium cynomolgi. The assay is described as follows: Antimalarial activity against Plasmodium cynomolgi infected in monkey assessed as relapses day at 10 mg/kg, po. In kind it is functional.
For assay [4], the system named is Plasmodium berghei. The assay is described as follows: Antimalarial activity against Plasmodium berghei infected in mouse at 640 mg/kg. It is filed as functional, organism-based. Further details: dose 640 mg/kg.
For assay [5], the system named is Plasmodium cynomolgi. The assay is described as follows: Antimalarial activity against Plasmodium cynomolgi infected in monkey assessed as curative activity without disease relapses until 90 days at 1 mg/kg, po by radical curative monkey test. In kind it is functional, organism-based. On the set-up: dose 1 mg/kg.
Assay [6] concerns Plasmodium cynomolgi. The assay is described as follows: Antimalarial activity against Plasmodium cynomolgi infected in monkey assessed as relapses day at 0.25 mg/kg, po. In kind it is functional.
Assay [7] deals with Plasmodium cynomolgi. The assay is described as follows: Antimalarial activity against Plasmodium cynomolgi infected in monkey assessed as curative activity without disease relapses until 90 days at 1.5 mg/kg, po by radical curative monkey test. It is filed as functional, organism-based. On the set-up: dose 1.5 mg/kg.
In assay [8] the test system is Plasmodium cynomolgi. The assay is described as follows: Antimalarial activity against Plasmodium cynomolgi infected in monkey assessed as curative activity without disease relapses until 90 days at 0.75 mg/kg, po by radical curative monkey test. It is filed as functional, organism-based. On the set-up: dose 0.75 mg/kg.
The test system of assay [9] is Plasmodium cynomolgi. The assay is described as follows: Antimalarial activity against Plasmodium cynomolgi infected in monkey assessed as curative activity without disease relapses until 90 days at 0.375 mg/kg, po by radical curative monkey test. In kind it is functional, organism-based. On the set-up: dose 0.375 mg/kg.
The test system of assay [10] is Plasmodium cynomolgi. The assay is described as follows: Antimalarial activity against Plasmodium cynomolgi infected in monkey assessed as relapses day at 0.375 mg/kg, po. It is filed as functional.
In assay [11] the test system is Plasmodium berghei. The assay is described as follows: Antimalarial activity against Plasmodium berghei infected in mouse at 320 to 640 mg/kg. In kind it is functional, organism-based.

`COc1cc(NC(C)CCCN)c2nc(SCc3ccccc3)ccc2c1.O=C(O)/C=C\C(=O)O` (stereo unspecified): the Time in [1] was determined as 15 days; in assay [2], 9 days.

On to `COc1ccc(COc2ccc3cc(OC)cc(NC(C)CCCN)c3n2)cc1.O=C(O)/C=C\C(=O)O` (stereo unspecified), for which the results for the Time in [1] and in assay [3] were 7 days and 18 days, respectively.

Regarding `COc1cc(NC(C)CCCN)c2nc(OCc3ccc(Cl)cc3Cl)ccc2c1.O=C(O)/C=C\C(=O)O` (stereo unspecified), in assay [2], the Time amounted to 8 days. Further, the result in assay [4] and in assay [5] was Active.

With `COc1cc(NC(C)CCCN)c2nc(OCc3ccc(F)cc3)ccc2c1.O=C(O)/C=C\C(=O)O` (stereo unspecified), the Time in [2] was found to be 91 days; in assay [6], 5 days. In addition, the result in assay [4] and in assay [5] was Active.

Turning to `COc1cc(NC(C)CCCN)c2nc(OCc3cccc(C(F)(F)F)c3)ccc2c1.O=C(O)/C=C\C(=O)O` (stereo unspecified), the Time in [1] was found to be 13 days; in assay [2] it was 6 days. Besides, in assay [5], the result was Active.

For the compound `COc1cc(NC(C)CCCN)c2nc(OCc3ccccc3)ccc2c1` (stereo unspecified), the result in [7] was Active.

For `COc1cc(NC(C)CCCN)c2nc(OCc3ccc(C(F)(F)F)cc3)ccc2c1.O=C(O)/C=C\C(=O)O` (stereo unspecified), the Time in assay [2] came to 5 days; in assay [6] it was 9 days. Besides, in assay [5], the result was Active.

Turning to `COc1cc(NC(C)CCCN)c2ncccc2c1.O=P(O)(O)O.O=P(O)(O)O` (stereo unspecified) [PRIMAQUINE PHOSPHATE], the result in assay [8] was Active. Besides, the result in assay [9] was inactive. Besides, the Time in assay [2] and in assay [10] was 11 days throughout.

`COc1cc(NC(C)CCCN)c2nc(OCc3ccc(Cl)cc3)ccc2c1.O=C(O)/C=C\C(=O)O` (stereo unspecified): the Time in assay [1] was determined as 9 days.

As to `COc1cc(NC(C)CCCN)c2nc(SCc3ccc(Cl)cc3)ccc2c1.O=C(O)/C=C\C(=O)O` (stereo unspecified), the Time in assay [2] and in assay [3] was 7 days in each case. In addition, the result in assay [11] was Active.
